Biological target: T1, UT-B (Homo sapiens, UniProt Q13336)
T1 construct: a red blood cell (i.e., erythrocyte), which endogenously expresses the urea transporter UT-B; endogenous in cells; host or cells: human red blood cells (whole venous blood, single donor)
T1 sequence (Q13336 1-389): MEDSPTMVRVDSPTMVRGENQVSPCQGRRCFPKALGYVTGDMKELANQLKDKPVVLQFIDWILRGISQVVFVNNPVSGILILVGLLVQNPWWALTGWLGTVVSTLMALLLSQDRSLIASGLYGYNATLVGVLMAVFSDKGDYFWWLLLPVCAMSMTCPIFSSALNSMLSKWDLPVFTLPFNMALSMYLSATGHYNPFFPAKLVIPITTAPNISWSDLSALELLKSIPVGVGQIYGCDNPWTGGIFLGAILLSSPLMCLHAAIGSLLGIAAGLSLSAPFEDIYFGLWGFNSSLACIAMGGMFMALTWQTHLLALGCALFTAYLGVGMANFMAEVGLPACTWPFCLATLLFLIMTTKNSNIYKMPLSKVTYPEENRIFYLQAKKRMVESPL
Test: Stopped-flow light scattering, urea transport in human RBCs
Assay type: cell-based
Conditions: for inhibition of urea transport, inhibitor added externally only (sidedness): inhibitor only in urea-containing solution at time of stopped-flow; for reversibility of inhibition after washing of RBCs: 10 min pre-incubation (0.1 μM ureainh-101, 0.4 μM ureainh-302), then washout
Procedure: RBC urea and water permeabilities were assayed by stopped-flow light scattering using a Hi-Tech Sf-51 instrument (Wiltshire, UK). […] After an initial osmotic shrinking phase, the kinetics of increasing cell volume caused by urea influx were measured as the time-course of 90° scattered light intensity at 530 nm, with increasing cell volume resulting in reduced scattered light intensity. As a positive control, 0.7 mM phloretin was added to the RBC suspension prior to stopped-flow experiments. Measurements of water permeability were carried out similarly, with sucrose (cell-impermeant) used instead of urea to establish a 250-mM osmotic gradient. As a positive control, HgCl2 (0.3 mM) was added to the RBC suspension prior to stopped-flow measurements. Osmotic water permeability coefficients (Pf) were computed from light scattering data as described (van Hoek et al., J Biol Chem. 267:18267-69 (1992)).
After repeating the 96-well plate RBC lysis assay to confirm compound activity (see Example 2), bona fide urea transport inhibition was determined by stopped-flow light scattering from the kinetics of urea influx (RBC swelling) in response to an inwardly directed urea gradient. Rapid mixing of an RBC suspension with a hyperosmolar solution containing excess 250 mM urea produced rapid cell shrinking due to osmotic water efflux, followed by cell swelling as urea (and water) influx occurred.
To determine EC50 values for urea transport inhibition directly, RBC urea transport was measured by stopped-flow light scattering using a non-saturating concentration of extracellular urea (to avoid possible competition effects). EC50 for inhibition of RBC urea transport was determined independently by comparing stopped-flow light scattering curves to a model of cell shrinking-swelling. […]
The two coupled differential equations describing water efflux and solute influx in response to externally added urea or methylurea were numerically integrated using the forward Euler method (Δt=0.01 s) to reproduce the biphasic changes in cell volume observed experimentally. […] For each time step, a new cell volume (normalized to the initial size; V(i+1)/V(0)) and a new cell permeant concentration (U(i+1)) were calculated from V(i+1)/V(0)=V(i)/V(0)−Δt·Pf·(S/V(0))·vw·[Ie(1−V(i)/V(0))+(Ue−Uc(i))] and Uc(i+1)=Uc(i)/V(0)−Δt·Us·(S/V(0))·vw·(Ue−Uc(i)). […] The product of Pf and the surface area-to-volume ratio (S/V(0)) was determined to be 3.4×10^2 s^−1 and 8.5×10^2 s^−1 for human and mouse erythrocytes, respectively, from water permeability measurements. […]

Row | inhibition of urea transport, inhibitor added externally only (sidedness) (0.2 μM) | reversibility of inhibition after washing of RBCs | inhibition of urea transport, inhibitor added externally only (sidedness) (0.1 μM) | SMILES
1 | had a sizable effect | fully reversible inhibition |  | Cc1ccc(Nc2nnc(-c3ccc(C(N)=O)cc3)c3ccccc23)cc1 [ureainh-302]
2 |  | fully reversible inhibition | did not inhibit urea transport | NC(=O)CSc1oc(-c2ccccc2)nc1S(=O)(=O)c1ccc(Br)cc1 [ureainh-101]
